Source: the supplement of paper PMC10307832

Columns and labels:
Experiment in all cases: relative viability (nuclei count vs DMSO), 5 days (fraction); higher = more cells survive
[1] = tested on: NCI-H1437
Outline: (§1)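 Relative viability was taken as the ratio of nuclei in treated wells to nuclei in vehicle wells. Lung cancer cell lines in 1536-well plates received compounds by pin tool one day after seeding, either one drug alone or a fixed anchor-drug dose plus five library-drug doses (not always all listed) in √10 steps. Nuclei were counted on 4× images after 5 days of treatment, and values are medians of duplicate plates.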

[2] = tested on: LXF-289
Outline: as §1

[3] = tested on: PC-14
Outline: as §1

[4] = tested on: HCC-44
Outline: as §1

[5] = tested on: H3255
Outline: as §1

[6] = tested on: HCC-366
Outline: as §1

[7] = tested on: UMC-11
Outline: as §1

[8] = tested on: NCI-H441
Outline: as §1

[9] = tested on: A-427
Outline: as §1

[10] = tested on: NCI-H2347
Outline: as §1

[11] = tested on: NCI-H460
Outline: as §1

[12] = tested on: NCI-H1755
Outline: as §1

[13] = tested on: NCI-H3122
Outline: as §1

[14] = tested on: NCI-H2405
Outline: as §1

[15] = tested on: NCI-H2009
Outline: as §1

[16] = tested on: NCI-H596
Outline: as §1

[17] = tested on: LCLC-103H
Outline: as §1

[18] = tested on: NCI-H2023
Outline: as §1

[19] = tested on: NCI-H23
Outline: as §1

[20] = tested on: ABC-1
Outline: as §1

[21] = tested on: NCI-H647
Outline: as §1

[22] = tested on: PC-3 [JPC-3]
Outline: as §1

## COCC1(CO)C(=O)C2CCN1CC2 (stereo unspecified) [PRIMA-1MET] + CS(=O)(=O)N1CCN(Cc2cc3nc(-c4cccc5[nH]ncc45)nc(N4CCOCC4)c3s2)CC1 [Pictilisib] (partner 1 µM)
[1]; first compound 0.2 µM
  relative viability: 0.463
[1]; first compound 0.6325 µM
  relative viability: 0.481
[1]; first compound 2 µM
  relative viability: 0.356
[1]; first compound 6.325 µM
  relative viability: 0.466
[1]; first compound 20 µM
  relative viability: 0.412
[2]; first compound 0.2 µM
  relative viability: 0.691
[2]; first compound 0.6325 µM
  relative viability: 0.743
[2]; first compound 2 µM
  relative viability: 0.531
[2]; first compound 6.325 µM
  relative viability: 0.717
[2]; first compound 20 µM
  relative viability: 0.761
[3]; first compound 0.2 µM
  relative viability: 0.813
[3]; first compound 0.6325 µM
  relative viability: 0.724
[3]; first compound 2 µM
  relative viability: 0.692
[3]; first compound 6.325 µM
  relative viability: 0.797
[3]; first compound 20 µM
  relative viability: 0.401
[4]; first compound 0.2 µM
  relative viability: 0.569
[4]; first compound 0.6325 µM
  relative viability: 0.414
[4]; first compound 2 µM
  relative viability: 0.426
[4]; first compound 6.325 µM
  relative viability: 0.651
[4]; first compound 20 µM
  relative viability: 0.611
[5]; first compound 0.2 µM
  relative viability: 0.493
[5]; first compound 0.6325 µM
  relative viability: 0.437
[5]; first compound 2 µM
  relative viability: 0.466
[5]; first compound 6.325 µM
  relative viability: 0.469
[5]; first compound 20 µM
  relative viability: 0.406
[6]; first compound 0.2 µM
  relative viability: 0.204
[6]; first compound 0.6325 µM
  relative viability: 0.118
[6]; first compound 6.325 µM
  relative viability: 0.123
[6]; first compound 20 µM
  relative viability: 0.0846
[7]; first compound 0.2 µM
  relative viability: 0.945
[7]; first compound 0.6325 µM
  relative viability: 0.759
[7]; first compound 2 µM
  relative viability: 0.594
[7]; first compound 6.325 µM
  relative viability: 0.825
[7]; first compound 20 µM
  relative viability: 0.786
[8]; first compound 0.2 µM
  relative viability: 0.504
[8]; first compound 0.6325 µM
  relative viability: 0.325
[8]; first compound 2 µM
  relative viability: 0.473
[8]; first compound 6.325 µM
  relative viability: 0.411
[8]; first compound 20 µM
  relative viability: 0.264
[9]; first compound 0.2 µM
  relative viability: 0.255
[9]; first compound 0.6325 µM
  relative viability: 0.53
[9]; first compound 2 µM
  relative viability: 0.528
[9]; first compound 6.325 µM
  relative viability: 0.378
[9]; first compound 20 µM
  relative viability: 0.622
[10]; first compound 0.2 µM
  relative viability: 0.416
[10]; first compound 0.6325 µM
  relative viability: 0.741
[10]; first compound 6.325 µM
  relative viability: 0.675
[10]; first compound 20 µM
  relative viability: 0.561
[11]; first compound 0.2 µM
  relative viability: 0.31
[11]; first compound 0.6325 µM
  relative viability: 0.359
[11]; first compound 2 µM
  relative viability: 0.23
[11]; first compound 6.325 µM
  relative viability: 0.357
[11]; first compound 20 µM
  relative viability: 0.197
[12]; first compound 0.2 µM
  relative viability: 0.187
[12]; first compound 0.6325 µM
  relative viability: 0.421
[12]; first compound 2 µM
  relative viability: 0.206
[12]; first compound 6.325 µM
  relative viability: 0.391
[12]; first compound 20 µM
  relative viability: 0.3
[13]; first compound 0.2 µM
  relative viability: 0.288
[13]; first compound 0.6325 µM
  relative viability: 0.647
[13]; first compound 2 µM
  relative viability: 0.659
[13]; first compound 6.325 µM
  relative viability: 0.429
[13]; first compound 20 µM
  relative viability: 0.52
[14]; first compound 0.2 µM
  relative viability: 0.278
[14]; first compound 0.6325 µM
  relative viability: 0.497
[14]; first compound 6.325 µM
  relative viability: 0.359
[14]; first compound 20 µM
  relative viability: 0.0865
[15]; first compound 0.2 µM
  relative viability: 0.337
[15]; first compound 0.6325 µM
  relative viability: 0.68
[15]; first compound 2 µM
  relative viability: 0.506
[15]; first compound 6.325 µM
  relative viability: 0.513
[15]; first compound 20 µM
  relative viability: 0.0085
[16]; first compound 0.2 µM
  relative viability: 0.406
[16]; first compound 0.6325 µM
  relative viability: 0.389
[16]; first compound 2 µM
  relative viability: 0.335
[16]; first compound 6.325 µM
  relative viability: 0.379
[16]; first compound 20 µM
  relative viability: 0.368
[17]; first compound 0.2 µM
  relative viability: 0.612
[17]; first compound 0.6325 µM
  relative viability: 0.583
[17]; first compound 2 µM
  relative viability: 0.457
[17]; first compound 6.325 µM
  relative viability: 0.583
[17]; first compound 20 µM
  relative viability: 0.478
[18]; first compound 0.2 µM
  relative viability: 0.205
[18]; first compound 0.6325 µM
  relative viability: 0.196
[18]; first compound 2 µM
  relative viability: 0.222
[18]; first compound 6.325 µM
  relative viability: 0.229
[18]; first compound 20 µM
  relative viability: 0.221
[19]; first compound 0.2 µM
  relative viability: 0.361
[19]; first compound 0.6325 µM
  relative viability: 0.403
[19]; first compound 2 µM
  relative viability: 0.323
[19]; first compound 6.325 µM
  relative viability: 0.334
[19]; first compound 20 µM
  relative viability: 0.138
[20]; first compound 0.2 µM
  relative viability: 0.71
[20]; first compound 0.6325 µM
  relative viability: 0.5
[20]; first compound 2 µM
  relative viability: 0.558
[20]; first compound 6.325 µM
  relative viability: 0.669
[20]; first compound 20 µM
  relative viability: 0.55
[21]; first compound 0.2 µM
  relative viability: 0.523
[21]; first compound 0.6325 µM
  relative viability: 0.384
[21]; first compound 6.325 µM
  relative viability: 0.412
[21]; first compound 20 µM
  relative viability: 0.165
[22]; first compound 0.2 µM
  relative viability: 0.681
[22]; first compound 0.6325 µM
  relative viability: 0.653
[22]; first compound 2 µM
  relative viability: 0.652
[22]; first compound 6.325 µM
  relative viability: 0.777
[22]; first compound 20 µM
  relative viability: 0.688
